Patent US8716285B2, “N-hydroxy-benzamids for the treatment of cancer” (Hoffmann-La Roche Inc., priority 2010, dated 2014)

Key:
recombinant human HDAC8 = recombinant human HDAC8 (Homo sapiens (Human), UniProt Q9BY41); assay: HDAC8 inhibition: recombinant HDAC8 fluorometric assay; assay type: biochemical; details: recombinant human HDAC8, substrate Ac-Arg-His-Lys-Lys(ε-acetyl)-AMC
Procedure: A competitive inhibitory assay of HDAC8 was carried out by using recombinant HDAC8 and a commercial substrate Ac-Arg-His-Lys-Lys(ε-acetyl)-AMC.
Compounds were tested for their ability to inhibit histone deacetylase 8 using an in vitro deacetylation assay. The enzyme source for this assay was recombinant human HDAC8 protein expressed and purified from insect cells. […] The substrate consisted of a commercial product Ac-Arg-His-Lys-Lys(ε-acetyl)-AMC (substrate is available from Cayman Chemical). […] In a detailed procedure, 8 μl of HDAC8 enzyme solution (0.125 μg/μl) was transferred to assay plates (CORNING 3676). 1 μl of half-log diluted compounds were added into wells and incubated for 15 min at rt. After that, 8 μl of substrate solution was transferred to the wells and incubated for 30 min at rt. After deacetylation of the substrate by incubation with HDAC8 enzyme, subsequent exposure to a developing reagent produced a fluorophore that was directly proportional to the level of deacetylation. So 4 μl of developer regent (Cayman 10006394) was added into the wells in the assay plates and incubated for 15 min. The fluorescence signal was measured by a FlexStation3 plate reader (excitation wave length 340-360 nm; emission wave length 440-465 nm). The IC50 was calculated after normalization and curve fitting using XLfit4.0 software. Inhibition %=[Mean(top)−signal(sample)]*100/[Mean(top)−Mean(bottom)].

HDAC6 = HDAC6 (Homo sapiens (Human), UniProt Q9UBN7); assay: Tubulin acetylation cytoblot assay (A549 cells); assay type: cell-based; details: 17-18 h, concentration for 50% induction of acetylated tubulin, read-out: Tub-ac EC50
Chain of HDAC6 (Q9UBN7 whole entry): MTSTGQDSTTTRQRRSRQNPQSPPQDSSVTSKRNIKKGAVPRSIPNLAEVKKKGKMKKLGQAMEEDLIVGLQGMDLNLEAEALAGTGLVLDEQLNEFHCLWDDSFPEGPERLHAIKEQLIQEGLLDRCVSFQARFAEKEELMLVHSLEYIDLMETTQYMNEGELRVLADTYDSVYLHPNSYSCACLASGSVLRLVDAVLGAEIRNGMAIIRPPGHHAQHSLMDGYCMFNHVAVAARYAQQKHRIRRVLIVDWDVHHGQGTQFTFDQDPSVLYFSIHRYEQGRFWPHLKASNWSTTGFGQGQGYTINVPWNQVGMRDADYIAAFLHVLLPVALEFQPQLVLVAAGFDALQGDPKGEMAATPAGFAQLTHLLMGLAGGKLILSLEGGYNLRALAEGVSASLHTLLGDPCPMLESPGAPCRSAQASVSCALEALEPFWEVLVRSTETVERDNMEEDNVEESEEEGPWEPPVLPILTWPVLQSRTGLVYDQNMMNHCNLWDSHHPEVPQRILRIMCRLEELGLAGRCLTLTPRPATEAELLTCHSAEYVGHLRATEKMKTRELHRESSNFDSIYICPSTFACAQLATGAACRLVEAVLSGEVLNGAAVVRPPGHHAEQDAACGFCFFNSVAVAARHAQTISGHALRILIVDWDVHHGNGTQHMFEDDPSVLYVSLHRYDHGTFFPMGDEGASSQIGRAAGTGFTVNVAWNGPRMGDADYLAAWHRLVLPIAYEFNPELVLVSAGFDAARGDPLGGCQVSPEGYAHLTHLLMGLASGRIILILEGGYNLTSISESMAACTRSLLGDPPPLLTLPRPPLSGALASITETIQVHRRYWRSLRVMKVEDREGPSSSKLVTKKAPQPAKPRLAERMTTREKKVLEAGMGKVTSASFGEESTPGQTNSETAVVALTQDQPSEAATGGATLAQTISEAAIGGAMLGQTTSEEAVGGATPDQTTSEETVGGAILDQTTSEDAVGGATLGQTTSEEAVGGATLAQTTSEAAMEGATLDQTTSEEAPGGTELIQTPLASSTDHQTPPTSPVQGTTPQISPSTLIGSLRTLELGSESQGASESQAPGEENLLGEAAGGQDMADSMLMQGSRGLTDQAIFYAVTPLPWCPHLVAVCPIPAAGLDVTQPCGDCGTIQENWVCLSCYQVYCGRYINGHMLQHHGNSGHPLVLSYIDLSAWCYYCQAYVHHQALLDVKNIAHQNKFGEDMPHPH
Procedure: Tubulin acetylation is a PD marker for HDAC6 inhibition. The extent of tubulin acetylation represents the inhibitory effect on HDAC6.
Novel compounds were tested for their ability to inhibit HDAC6 using a cell-based deacetylation assay. Tubulin acetylation was detected by the anti-acetylated tubulin antibody (Sigma) and horse radish peroxidase (HRP) conjugated secondary antibody (KangChen Bio. Tech.). […] 20 μl of diluted compound solution was transferred to the cell culture plate and incubated for 17-18 h. After medium removal and fixation by formaldehyde (3.7% paraformaldehyde in TBS), the cells in the plates were treated with 180 μl of −20° C. MeOH and incubated for 5 min at rt. The cell lysis was incubated with 75 μl of primary anti-acetylated tubulin antibody and secondary HRP conjugated antibody solution (1:750 anti-acetylated tubulin, 1:750 HRP conjugated anti-mouse IgG in antibody dilution buffer not containing sodium azide) for 4 h at 4° C. By adding the HRP substrate, enhanced chemiluminescence (ECL) reagent (GE Healthcare) generated luminescence corresponding to the level of tubulin acetylation. So that 75 μl of ECL was added into the wells and the luminescence from each well was immediately quantified by the plate reader. Based on the luminescence reading, the IC50s against HDAC6 of the tested compounds were calculated by plotting the curve with XLfit4.0 software. Inhibition %=[signal(sample)−Mean(bottom)]*100/[Mean(top)−Mean(bottom)]

[1] = test system: p21 promoter-luciferase construct; assay: p21 reporter gene induction in HeLa cells transfected with p21 promoter-luciferase construct; assay type: cell-based; details: for p21 RP3: relative gene level of p21 induced compared to MS275 at 3 μM; for p21 RP10: relative level of p21 induced compared to MS275 at 10 μM; for p21 RP30: relative level of p21 induced compared to MS275 at 30 μM
Procedure: As a surrogate for in-cell HDAC1/2/3 inhibition, p21 induction was used as a counterscreen to evaluate the selectivity of the compounds in the present invention toward HDAC6 or HDAC8.
The novel compounds of the present invention were tested for their ability to induce p21 gene expression using a reporter gene assay involving HeLa cells transfected with a p21 promoter-luciferase construct. The p21 promoter contained the Sp1/Sp3 binding site for HDAC but not the upstream p53 binding site. Briefly, the day before transfection, HeLa cells were seeded at 11,000 cells/well in a 96-well culture plate and incubated at 37° C. in 5% CO2 overnight. A transfection media was prepared prior to transfection according to the following procedure: (1) 5 μl serum-free DMEM, 0.15 μl Fugene 6 reagent, 40 ng p21-luc, 10 ng GFP were mixed gently and incubated at rt for 30 minutes; (2), then 98 μl DMEM (with 10% FBS, 1% penicillin and streptomycin) was added to the DNA: Fugene 6 reagent complex and mixed gently. For transfection, the medium was removed and replaced with 100 μl/well transfection media which was prepared according to the procedure above. After incubating the cells for 24 hours at 37° C. in 5% CO2, fresh media and test compounds were added to the wells and the cells further incubated for 15 hours at 37° C. in 5% CO2. Cells were lysed by adding 80 μl/well of a cell culture lysis reagent (Promega). […] 100 μl luciferase assay reagent (Promega) was then added to every 20 μl cell lysate for luminometer detection. […] Induction activity for specific representative compounds can be found in Table 3.

Chain of recombinant human HDAC8 (Q9BY41 whole entry): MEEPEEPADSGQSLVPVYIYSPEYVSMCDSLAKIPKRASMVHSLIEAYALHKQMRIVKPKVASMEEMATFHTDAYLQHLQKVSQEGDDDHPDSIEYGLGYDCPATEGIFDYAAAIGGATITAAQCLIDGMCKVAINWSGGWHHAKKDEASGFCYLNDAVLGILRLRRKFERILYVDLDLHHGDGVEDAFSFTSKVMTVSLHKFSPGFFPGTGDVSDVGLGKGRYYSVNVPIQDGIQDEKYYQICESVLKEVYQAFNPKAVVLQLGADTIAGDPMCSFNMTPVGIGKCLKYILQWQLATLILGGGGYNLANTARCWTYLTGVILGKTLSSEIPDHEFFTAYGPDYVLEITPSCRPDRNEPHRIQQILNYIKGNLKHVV

SMILES | IC50 (recombinant human HDAC8) [nM] | EC50 (HDAC6) [nM] | p21 RP3 [1] | p21 RP10 [1] | p21 RP30 [1]
O=C(NO)c1ccc2c(c1)CC(NS(=O)(=O)c1ccc(Cl)cc1)CC2 (stereo not shown) [Example 41, 7-(4-Chloro-benzenesulfonylamino)-5,6,7,8-tetrahydro-naphthalene-2-carboxylic acid hydroxyamide] | 850 | 1070 | −0.15 | 0.35 | 0.05
O=C(NO)c1ccc2c(c1)CC(NS(=O)(=O)c1cccc(C(F)(F)F)c1)CC2 (stereo not shown) [Example 43, 7-(3-Trifluoromethyl-benzenesulfonylamino)-5,6,7,8-tetrahydro-naphthalene-2-carboxylic acid hydroxyamid] | 370 | 3850 | 0.13 | 0.08 | −0.04
O=C(NO)c1ccc2c(c1)CC(NS(=O)(=O)c1ccc(Cl)c(Cl)c1)CC2 (stereo not shown) [Example 47, 7-(3,4-Dichloro-benzenesulfonylamino)-5,6,7,8-tetrahydro-naphthalene-2-carboxylic acid hydroxyamide] | 470 | 3420 | 0.08 | 0.01 | −0.04
O=C(NO)c1cc2c(cc1F)CCC(NS(=O)(=O)c1cccc(Cl)c1)C2 (stereo not shown) [Example 52, 7-(3-Chloro-benzenesulfonylamino)-3-fluoro-5,6,7,8-tetrahydro-naphthalene-2-carboxylic acid hydroxyamide] | 930 | 3740 | 0.12 | 0.01 | −0.02
COc1cccc(C(=O)NC2CNc3ccc(C(=O)NO)cc3C2)c1 (stereo not shown) [Example 54, 3-(3-Methoxy-benzoylamino)-1,2,3,4-tetrahydro-quinoline-6-carboxylic acid hydroxyamide] | 2810 | 3390 | 0.03 | 0.03 | 0.07
O=C(NO)c1ccc2c(c1)CC(NC(=O)c1ccc(Cl)cc1)CN2 (stereo not shown) [Example 55, 3-(4-Chloro-benzoylamino)-1,2,3,4-tetrahydro-quinoline-6-carboxylic acid hydroxyamide] | 2410 | 2690 | 0.50 | 0.13 | 0.06
O=C(NO)c1ccc2c(c1)CC(NC(=O)c1cccc(Cl)c1)CN2 (stereo not shown) [Example 56, 3-(3-Chloro-benzoylamino)-1,2,3,4-tetrahydro-quinoline-6-carboxylic acid hydroxyamide] | 3370 | 3430 | 0.04 | 0.05 | 0.12
O=C(NO)c1ccc2c(c1)CC(NC(=O)c1ccc(Cl)c(Cl)c1)CN2 (stereo not shown) [Example 58, 3-(3,4-Dichloro-benzoylamino)-1,2,3,4-tetrahydro-quinoline-6-carboxylic acid hydroxyamide] | 2630 | 5360 | 0.03 | −0.03 | 0.01
O=C(NO)c1ccc2c(c1)CC(NC(=O)c1ccc(-c3ccccc3)cc1)CN2 (stereo not shown) [Example 59, 3-[(Biphenyl-4-carbonyl)-amino]-1,2,3,4-tetrahydro-quinoline-6-carboxylic acid hydroxyamide] | 2850 | 7990 | 0.20 | 0.08 | 0.15
CN1CC(NS(=O)(=O)c2ccc(Cl)cc2)Cc2cc(C(=O)NO)ccc21 (stereo not shown) [Example 65, 3-(4-Chloro-benzenesulfonylamino)-1-methyl-1,2,3,4-tetrahydro-quinoline-6-carboxylic acid hydroxyamide] | 750 | 10600 | 0.41 | 0.26 | 0.46

Further compounds by falling IC50 (recombinant human HDAC8), results first:

IC50 (recombinant human HDAC8) [nM] | EC50 (HDAC6) [nM] | SMILES | p21 RP3 [1] | p21 RP10 [1] | p21 RP30 [1]
2670 | 7130 | O=C(NO)c1ccc2c(c1)CC(NC(=O)c1cccc(C(F)(F)F)c1)CN2 (stereo not shown) [Example 57, 3-(3-Trifluoromethyl-benzoylamino)-1,2,3,4-tetrahydro-quinoline-6-carboxylic acid hydroxyamide] | 0.07 | 0.01 | 0.04
1510 | 6430 | O=C(NO)c1cc2c(cc1F)CCC(Nc1nccc(-c3cccnc3)n1)C2 (stereo not shown) [Example 50, 3-Fluoro-7-(4-pyridin-3-yl-pyrimidin-2-ylamino)-5,6,7,8-tetrahydro-naphthalene-2-carboxylic acid hydroxyamide] | 0.26 | 0.03 | −0.01
1280 | 5200 | O=C(NO)c1cc2c(cc1F)CCC(NS(=O)(=O)c1ccc(Cl)cc1)C2 (stereo not shown) [Example 51, 7-(4-Chloro-benzenesulfonylamino)-3-fluoro-5,6,7,8-tetrahydro-naphthalene-2-carboxylic acid hydroxyamide] | 0.20 | 0.03 | 0.00
390 | 3430 | COc1ccc(S(=O)(=O)NC2CCc3ccc(C(=O)NO)cc3C2)cc1OC (stereo not shown) [Example 45, 7-(3,4-Dimethoxy-benzenesulfonylamino)-5,6,7,8-tetrahydro-naphthalene-2-carboxylic acid hydroxyamide] | 0.18 | 0.18 | 0.46
370 | 6200 | O=C(NO)c1ccc2c(c1)CC(NS(=O)(=O)c1cccnc1)CC2 (stereo not shown) [Example 48, 7-(Pyridine-3-sulfonylamino)-5,6,7,8-tetrahydro-naphthalene-2-carboxylic acid hydroxyamide] | 0.41 | 0.17 | 0.17
210 | 3900 | O=C(NO)c1ccc2c(c1)CC(NS(=O)(=O)c1ccc(F)cc1F)CC2 (stereo not shown) [Example 44, 7-(2,4-Difluoro-benzenesulfonylamino)-5,6,7,8-tetrahydro-naphthalene-2-carboxylic acid hydroxyamide] | 0.63 | 0.32 | 0.56
190 | 4860 | O=C(NO)c1ccc2c(c1)CC(NS(=O)(=O)c1ccc(Cl)cc1Cl)CC2 (stereo not shown) [Example 46, 7-(2,4-Dichloro-benzenesulfonylamino)-5,6,7,8-tetrahydro-naphthalene-2-carboxylic acid hydroxyamide] | 0.49 | 0.15 | 0.01
